# Assay results from patent EP4786483A1, “AURISTATIN DERIVATIVE AND ANTIBODY-DRUG CONJUGATE THEREOF” (priority 2023, dated 2025).
# Read-outs that look alike come from different tables or passages of the source.
# Assays:
# Assay type in all cases: cell-based
# [1] = test system: Human gastric cancer cells NCI-N87; assay: Cytotoxicity test for compounds (CellTiter-Glo cell proliferation inhibition); conditions: Homo sapiens, NCI-N87, 72 h
# Experimental: (§1) Biological Test Example 1: Cytotoxicity Test for Compounds
# (§2) • 96-well clear flat-bottom white plate (Corning, #3610) • RPMI1640 culture medium (Gibco, #A10491-01) • Fetal Bovine Serum (Sigma-Aldrich, #F8687-500ML) • CellTiter-Glo® Luminescent Cell Viability Assay (Promega, # G7572/G7571)
# (§3) Human gastric cancer cells NCI-N87 (ATCC, Cat. No.: CRL-5822), human breast cancer cells MDA-MB-468 (Cell Bank of the Committee for Type Culture Collection of the Chinese Academy of Sciences, Cat. No.: TCHu136), and human breast cancer cells KPL-4 (Nanjing Cobioer Biosciences Co., Ltd., Cat. No.: CBP60379) were washed with PBS and digested with 0.25% Trypsin-EDTA trypsin for about 3-10 min. The digestion was terminated with a complete cell culture medium. The cells were centrifuged at 1000 rpm for 5 min, and the supernatant was discarded. The cells were resuspended in a complete cell culture medium. The cell number was counted using a cell counter, and the cells were adjusted to the desired density. 90.0 µL of the cell suspension was added to each well at 3000 cells/well. The cell plate was incubated in a cell incubator at 37°C with 5% CO2 overnight.
# (§4) In the experiment, a DMSO control group and test sample groups were set. The cell plate was removed from the incubator to observe cell adherence. After the cells adhered, 10.00 µL of the sample (starting from a final concentration of 10 µM, 5-fold dilution, 9 concentrations) was added to each well. After the mixture was gently shaken uniformly, the plate was incubated in the incubator.
# (§5) After 3 days of incubation, 100.0 µL/well of CellTiter-Glo™ (Promega, Cat. No.: G7572/G7571) working solution was added. The plate was shaken on a thermostatic shaker to lyse the cells. After 10 min, the plate was read on a microplate reader.
# (§6) Data analysis: GraphPad Prism 8.0 software was used to plot a graph with the Log value of the sample concentration as the abscissa and the Inhibition% as the ordinate. The data were analyzed by Nonlinear regression (curve fit) to obtain the IC50 value of each test sample. Table 1. Inhibition activity of compounds of the present disclosure on cell proliferation
# [2] = test system: human breast cancer cells MDA-MB-468; assay: as above; conditions: Homo sapiens, MDA-MB-468, 72 h
# Experimental: as §1, §2, §3, §4, §5, §6
# [3] = test system: human breast cancer cells KPL-4; assay: as above; conditions: Homo sapiens, KPL4, 72 h
# Experimental: as §1, §2, §3, §4, §5, §6
# [4] = test system: CD34^+ hematopoietic stem/progenitor cells; assay: Hematologic toxicity of compounds (CD34+ HSC viability, CTG); conditions: 240 h; cytotoxic drugs; treatment for 10 days; CTG cell viability
# Experimental: Experimental objective: The effects of cytotoxic drugs on the differentiation and development of CD34^+ hematopoietic stem/progenitor cells into the megakaryocytic lineage were investigated, so as to evaluate their potential hematologic toxicity of causing thrombocytopenia.
# Experimental design: After resuscitation, bone marrow-mobilized peripheral blood-derived HSCs were seeded at 2000 cells/well/180 µL in an ultra-low attachment 96-well round-bottom plate and stabilized for 4 h. The cells were treated with compounds by performing a 5-fold gradient dilution starting from the highest dose of 1 µM, resulting in a total of 9 concentration points, and this treatment was maintained continuously for 10 days. Cell viability was detected using the CTG reagent (CellTiter-Glo luminescent cell viability detection kit, manufacturer: Promega, Cat. No.: G7571). Table 2. Hematologic toxicity test results of cytotoxic drugs
# [5] = 3 days of incubation, CellTiter-Glo, read-out: NCI-87/IC50
# [6] = 3 days of incubation, CellTiter-Glo, read-out: MDA-MD-468/IC50
# [7] = 3 days of incubation, CellTiter-Glo, read-out: KPL-4/IC50
SMILES,"IC50 [1, 5] [nM]","IC50 [2, 6] [nM]","IC50 [3, 7] [nM]",IC50 [4] [nM],IC50 ([1]; read-out: NCI-87/IC50 (nM)) [nM],IC50 ([2]; read-out: MDA-MD-468/IC50 (nM)) [nM],IC50 ([3]; read-out: KPL-4/IC50 (nM)) [nM]
"C#CCN(CCc1cccc(N)c1)C(=O)[C@H](C)[C@@H](OC)[C@@H]1CCCN1C(=O)C[C@@H](OC)[C@H]([C@@H](C)CC)N(C)C(=O)[C@@H](NC(=O)[C@H](C(C)C)N(C)C)C(C)C [Example 6, (S)-N-((3R,4S,5S)-1-((S)-2-((1R,2R)-3-((3-aminophenethyl)(prop-2-yn-1-yl)amino)-1-methoxy-2-methyl-3-oxopropyl)pyrrolidin-1-yl)-3-methoxy-5-methyl-1-oxoheptan-4-yl)-2-((S)-2-(dimethylamino)-3-methylbutanamido)-N,3-dimethylbutanamide]",3.93,12.6,2.96,3.96,,,
"CC[C@H](C)[C@@H]([C@@H](CC(=O)N1CCC[C@H]1[C@H](OC)[C@@H](C)C(=O)N(CCc1cccc(N)c1)OC)OC)N(C)C(=O)[C@@H](NC(=O)[C@H](C(C)C)N(C)C)C(C)C [Example 7, (S)-N-((3R,4S,5S)-1-((S)-2-((1R,2R)-3-((3-aminophenethyl)(methoxy)amino)-1-methoxy-2-methyl-3-oxopropyl)pyrrolidin-1-yl)-3-methoxy-5-methyl-1-oxoheptan-4-yl)-2-((S)-2-(dimethylamino)-3-methylbutanamido)-N,3-dimethylbutanamide]",0.89,13.4,0.45,0.144,,,
C=CC(Cc1cccc(N)c1)OC(=O)[C@H](C)[C@@H](OC)[C@@H]1CCCN1C(=O)C[C@@H](OC)[C@H]([C@@H](C)CC)N(C)C(=O)[C@@H](NC(=O)[C@H](C(C)C)N(C)C)C(C)C (stereo partly drawn) [Example 19],,,,,< 0.0256,< 0.0256,< 0.0256
CC[C@H](C)[C@@H]([C@@H](CC(=O)N1CCC[C@H]1[C@H](OC)[C@@H](C)C(=O)O[C@H](CF)Cc1cccc(N)c1)OC)N(C)C(=O)[C@@H](NC(=O)[C@H](C(C)C)N(C)C)C(C)C [Example 24],,,,,< 0.0256,< 0.0256,< 0.0256
CC[C@H](C)[C@@H]([C@@H](CC(=O)N1CCC[C@H]1[C@H](OC)[C@@H](C)C(=O)O[C@@H](Cc1cccc(N)c1)C(F)F)OC)N(C)C(=O)[C@@H](NC(=O)[C@H](C(C)C)N(C)C)C(C)C [Example 25],,,,,< 0.0256,< 0.0256,< 0.0256
CCC(C)C(C(CC(=O)N1CCCC1C(OC)C(C)C(=O)OC(Cc1cccc(N)c1)C(=O)NC)OC)N(C)C(=O)C(NC(=O)C(C(C)C)N(C)C)C(C)C (stereo not drawn) [Example 30],5.62,0.72,2.42,,,,
C=C(C)C(Cc1cccc(N)c1)OC(=O)[C@H](C)[C@@H](OC)[C@@H]1CCCN1C(=O)C[C@@H](OC)[C@H]([C@@H](C)CC)N(C)C(=O)[C@@H](NC(=O)[C@H](C(C)C)N(C)C)C(C)C (stereo partly drawn) [Example 31],,,,,< 0.0256,0.11,< 0.0256
CC[C@H](C)[C@@H]([C@@H](CC(=O)N1CCC[C@H]1[C@H](OC)[C@@H](C)C(=O)OC1(Cc2cccc(N)c2)CC1)OC)N(C)C(=O)[C@@H](NC(=O)[C@H](C(C)C)N(C)C)C(C)C [Example 32],,,,,< 0.0256,< 0.0256,< 0.0256
"CC[C@H](C)[C@@H]([C@@H](CC(=O)N1CCC[C@H]1[C@H](OC)[C@@H](C)C(=O)N(CC#N)CCc1cccc(N)c1)OC)N(C)C(=O)[C@@H](NC(=O)[C@H](C(C)C)N(C)C)C(C)C [Example 45, (S)-N-((3R,4S,5S)-1-((S)-2-((1R,2R)-3-((3-aminophenethyl)(cyanomethyl)amino)-1-methoxy-2-methyl-3-oxopropyl)pyrrolidin-1-yl)-3-methoxy-5-methyl-1-oxoheptan-4-yl)-2-((S)-2-(dimethylamino)-3-methylbutanamido)-N,3-dimethylbutanamide]",2.21,,0.65,0.235,,,
"CC[C@H](C)[C@@H]([C@@H](CC(=O)N1CCC[C@H]1[C@H](OC)[C@@H](C)C(=O)N(C)CCc1cccc(N)c1)OC)N(C)C(=O)[C@@H](NC(=O)[C@H](C(C)C)N(C)C)C(C)C [WO2023081230A1 Compound 1, reference compound]",,,,0.017,,,
